Consider nine compounds from US7232659B1, “Multiplex analysis for high throughput discrimination of GPCR agonists and antagonists” (STC.UNM, priority 2003, dated 2007).

For one experiment, the system named is β2AR in membranes. As to conditions: membrane binding assays (3); cited from earlier work.
For experiment [1], the system named is adenylyl cyclase activity via β2AR in membranes. The note with it: membranes (3); cited from earlier work.
Experiment [2] concerns the target T1, β2AR-GFP with Gαsβ1γ2 on Ni beads (Homo sapiens, UniProt P07550).
T1 construct: expressed in transfected cells; host or cells: receptor fusion: U937 cells, solubilized membranes
The experiment in a line: ARG assembly assay on G protein coated beads, flow cytometry. It counts as biochemical. As to conditions: for slope of GFP/bead versus β2AR-GFP concentration: dobutamine relative to salbutamol. The procedure:
ARG Assembly Assay on G Protein Coated Beads—Coating of the Ni beads with heterotrimeric G proteins has been described before in detail (10). Briefly, 25 pmol of the desired α subunit and 25 pmol of hexahistidine-tagged β1γ2 were mixed with 2.5 μl of a 50% slurry of DCNi beads (2.5×10^5 beads/μl) and 190 μl of HPSM containing 0.1% dodecyl maltoside and 1 mM dithiothreitol, then kept in suspension by rocking at 4–7° C. for one hour. The beads were then centrifuged for 30 seconds at 1,500×gmax, the supernatant was removed, and the beads were resuspended in 50 μl of the buffer. This provided 25 aliquots of 24,000 G protein coated beads, for 25 ARG assembly assays (some beads were lost to surfaces). A ten microliter ARG assembly assay generally consisted of two microliters of solubilized receptor preparation, two microliters of desired ligand, four microliters of HPSM containing 0.1% dodecyl maltoside, and two microliters of G protein coated beads. Nonspecific fluorescence was defined in the presence of 0.1 mM GTPγS. These suspensions were mixed on an orbital mixer for 2 hours, brought to 200 μl with HPSM containing 0.1% dodecyl maltoside, transferred to a 12×75 mm tube, and immediately analyzed by flow cytometry for bead fluorescence. For kinetic data, tubes were removed from the cytometer after twenty seconds, 2 μl of 10^−2 M GTPγS was added and mixed, and the tubes were returned to the cytometer for measurement of the bead fluorescence. The cytometer data were converted to alphanumeric form and binned into one second intervals using the FACSQuery program (available free from Bruce Edwards), which provides a series of mean channel fluorescence (MCF) values in an Excel file.
(Flow cytometry measures light scatter and fluorescence of single cells or particles in a stream.)

In experiment [3] the target is T2, FPR-GFP (R^F) with Gαi3β1H6γ2 on DCNi beads (Homo sapiens, UniProt P21462).
T2 construct: host or cells: receptor fusion: transfected cells (U937 named for FPR), solubilized membranes; β1H6γ2: Sf9 insect cells
T2 sequence (P21462 whole entry, the tested form may be a part): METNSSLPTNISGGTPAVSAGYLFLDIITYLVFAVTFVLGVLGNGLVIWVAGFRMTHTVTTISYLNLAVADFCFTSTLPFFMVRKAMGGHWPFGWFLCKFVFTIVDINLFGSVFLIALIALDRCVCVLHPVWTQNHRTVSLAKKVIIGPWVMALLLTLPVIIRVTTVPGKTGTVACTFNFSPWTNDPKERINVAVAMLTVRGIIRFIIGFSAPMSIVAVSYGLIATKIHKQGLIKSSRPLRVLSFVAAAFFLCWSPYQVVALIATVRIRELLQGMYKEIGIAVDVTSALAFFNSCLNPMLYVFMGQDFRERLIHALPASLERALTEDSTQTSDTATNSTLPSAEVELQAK
T2 sequence (P08754 2-354 partner limits assumed): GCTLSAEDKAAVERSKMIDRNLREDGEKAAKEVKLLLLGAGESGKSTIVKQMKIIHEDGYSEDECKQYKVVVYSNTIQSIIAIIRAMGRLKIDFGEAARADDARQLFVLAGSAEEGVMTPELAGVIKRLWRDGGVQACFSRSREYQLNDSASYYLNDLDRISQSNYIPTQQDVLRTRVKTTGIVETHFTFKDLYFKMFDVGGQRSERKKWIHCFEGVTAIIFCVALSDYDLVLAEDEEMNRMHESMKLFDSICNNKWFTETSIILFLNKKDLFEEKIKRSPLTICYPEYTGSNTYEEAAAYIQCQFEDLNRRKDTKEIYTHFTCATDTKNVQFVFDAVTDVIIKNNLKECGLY
T2 sequence (P62873 2-340 partner limits assumed): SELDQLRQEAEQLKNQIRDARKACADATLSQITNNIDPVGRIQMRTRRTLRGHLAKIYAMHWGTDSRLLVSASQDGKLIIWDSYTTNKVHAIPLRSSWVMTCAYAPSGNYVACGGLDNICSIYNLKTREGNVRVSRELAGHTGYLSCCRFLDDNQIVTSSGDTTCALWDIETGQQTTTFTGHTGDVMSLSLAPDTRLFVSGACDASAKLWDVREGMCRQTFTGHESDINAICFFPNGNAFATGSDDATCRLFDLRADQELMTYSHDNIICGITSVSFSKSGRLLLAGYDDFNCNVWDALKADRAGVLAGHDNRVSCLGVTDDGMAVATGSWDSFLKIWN
T2 sequence (P59768 2-68 partner limits assumed): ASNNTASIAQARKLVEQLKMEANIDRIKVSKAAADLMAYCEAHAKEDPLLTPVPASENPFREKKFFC
Nature of the experiment: Standard LRG assembly assay with FPR-GFP on G protein beads, flow cytometry. It counts as biochemical. On the procedure: Standard LRG Assembly Assay. […] Each mixture was mixed by pipetting to ensure a uniform starting suspension of the beads in 96 V-well plates (Costar), and then mixed at low speed on a vortex mixer at 7° for two hours. The 10 μl assays were individually brought to 200 μl with 0.1% dodecyl maltoside in buffer A in 12×75 mm tubes for flow cytometric measurement of fluorescence of the beads. LRG assembly was defined as the difference between fluorescence without GTPγS and that with GTPγS. All determinations were done in duplicate.

Residues, ends and D or L forms follow the SMILES beside them. *: point of attachment. For = O=C*

T1 sequence (P62873 2-340): as the sequence (P62873 2-340 partner limits assumed) above
T1 sequence (P07550 whole entry, the tested form may be a part): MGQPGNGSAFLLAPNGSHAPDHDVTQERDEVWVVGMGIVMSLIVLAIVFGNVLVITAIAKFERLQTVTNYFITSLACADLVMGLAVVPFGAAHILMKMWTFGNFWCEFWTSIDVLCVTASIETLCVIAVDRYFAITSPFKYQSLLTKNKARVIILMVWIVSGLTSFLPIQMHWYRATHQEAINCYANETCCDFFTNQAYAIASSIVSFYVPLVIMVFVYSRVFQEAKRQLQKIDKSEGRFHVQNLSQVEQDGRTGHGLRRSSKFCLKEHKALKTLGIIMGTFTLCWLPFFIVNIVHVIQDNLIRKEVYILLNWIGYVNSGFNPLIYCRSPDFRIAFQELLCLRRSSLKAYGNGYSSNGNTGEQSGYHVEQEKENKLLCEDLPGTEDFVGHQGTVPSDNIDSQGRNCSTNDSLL
T1 sequence (P59768 2-68, further chain): as the sequence (P59768 2-68 partner limits assumed) above
T1 sequence (P63092 other isoform, or with tags, fused parts or gaps, further chain): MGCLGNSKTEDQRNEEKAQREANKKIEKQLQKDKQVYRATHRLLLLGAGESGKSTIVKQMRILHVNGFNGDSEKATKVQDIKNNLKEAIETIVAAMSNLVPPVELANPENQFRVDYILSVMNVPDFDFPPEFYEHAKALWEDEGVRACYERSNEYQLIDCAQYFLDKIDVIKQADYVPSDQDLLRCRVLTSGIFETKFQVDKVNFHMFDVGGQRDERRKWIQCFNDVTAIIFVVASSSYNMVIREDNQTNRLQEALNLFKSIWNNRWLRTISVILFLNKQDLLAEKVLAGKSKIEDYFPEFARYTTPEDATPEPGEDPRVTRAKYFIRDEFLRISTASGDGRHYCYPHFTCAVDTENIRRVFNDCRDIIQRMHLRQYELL

With `CC(Cc1ccc(O)cc1)NCC(O)c1ccc(O)c(O)c1` (stereo not shown) [hydroxybenzylisoproterenol], in the experiment with β2AR in membranes, the “percent ARG form” value is given as 93%. Also, in experiment [1], the “efficacy (adenylyl cyclase activity compared to isoproterenol)” value is listed as 110%. In the case of `NC[C@H](O)c1ccc(O)c(O)c1` [norepinephrine], the “slope of GFP/bead versus β2AR-GFP concentration” value in experiment [2] (saturating agonist) is “indistinguishable from isoproterenol”. Still for that read-out and setting: the entry for `CNC[C@H](O)c1ccc(O)c(O)c1` [epinephrine] is “indistinguishable from isoproterenol”.

As for `CC(C)(C)NCC(O)c1ccc(O)c(CO)c1` (stereo not shown) [salbutamol], the “efficacy (adenylyl cyclase activity compared to isoproterenol)” value in experiment [1] is 20%.

In the case of `CC(C)NCC(O)c1ccc(O)c(O)c1` (stereo not shown) [isoproterenol], the “percent ARG form” value with β2AR in membranes is 80%. For the same compound, the “efficacy (adenylyl cyclase activity compared to isoproterenol)” value in experiment [1] is listed as 100%.

Turning to `CC(C)NCC(O)c1ccc(O)c(NS(C)(=O)=O)c1` (stereo not shown) [soterenol], the “percent ARG form” value in the experiment on β2AR in membranes is on record as 58%. Besides, in experiment [1], the “efficacy (adenylyl cyclase activity compared to isoproterenol)” value is given as 8%. In the case of `Nc1nc2c(ncn2[C@@H]2O[C@H](COP(=O)(O)OP(=O)(O)OP(O)(O)=S)[C@@H](O)[C@H]2O)c(=O)[nH]1` [GTPγS, guanosine 5′-3-O-(thio)triphosphate], in experiment [2] (40 nM β2AR-GFP, 1 mM isoproterenol, 0.1 mM GTPγS), the “fluorescence on G protein beads with GTPγS added” value was “about 10,000 β2AR-GFP/bead”. As to `CSCC[C@H](NC=O)C(=O)N[C@@H](CC(C)C)C(=O)N[C@@H](Cc1ccccc1)C(=O)N[C@@H](Cc1ccccc1)C(=O)O` [fMLFF] (For-MLFF-OH), in experiment [3], it took 27 nM to reach a half-maximal effect (EC50) and the “ratio of Kd (for LR) to EC50 (for LRG formation)” value is on record as 2.8. Take `CC(CCc1ccc(O)cc1)NCCc1ccc(O)c(O)c1` (stereo not shown) [dobutamine]: the “rate of ternary complex disassembly after GTPγS” value in experiment [2] (0.1 mM GTPγS) amounted to 0.09 s⁻¹. Further, the “maximal ARG/bead level relative to the full agonist isoproterenol” value in experiment [2] (dose-response, 20 nM β2AR-GFP) is on record as “ten”. Moreover, in experiment [2] (saturating agonist, 40 nM β2AR-GFP), the “time course of ARG assembly” value is not above 1 h. Also, the “slope of GFP/bead versus β2AR-GFP concentration” value in experiment [2] (saturating agonist) was “⅔”.
